Source: article PMC12615753, “Glutathione as a taste modulator: molecular mechanisms of interaction with umami and sweet taste receptors” (Food Chemistry: Molecular Sciences, 2025)

Molecular target: T1, hTAS1R1 R277A/rTAS1R3 (Homo sapiens, UniProt Q7RTX1, R277A)
T1 construct: UniProtKB number Q7RTX1–1); expressed in transfected cells; host or cells: HEK293T/17 (ATCC CRL-11268)
T1 sequence (Q7RTX1 21-841 R277A): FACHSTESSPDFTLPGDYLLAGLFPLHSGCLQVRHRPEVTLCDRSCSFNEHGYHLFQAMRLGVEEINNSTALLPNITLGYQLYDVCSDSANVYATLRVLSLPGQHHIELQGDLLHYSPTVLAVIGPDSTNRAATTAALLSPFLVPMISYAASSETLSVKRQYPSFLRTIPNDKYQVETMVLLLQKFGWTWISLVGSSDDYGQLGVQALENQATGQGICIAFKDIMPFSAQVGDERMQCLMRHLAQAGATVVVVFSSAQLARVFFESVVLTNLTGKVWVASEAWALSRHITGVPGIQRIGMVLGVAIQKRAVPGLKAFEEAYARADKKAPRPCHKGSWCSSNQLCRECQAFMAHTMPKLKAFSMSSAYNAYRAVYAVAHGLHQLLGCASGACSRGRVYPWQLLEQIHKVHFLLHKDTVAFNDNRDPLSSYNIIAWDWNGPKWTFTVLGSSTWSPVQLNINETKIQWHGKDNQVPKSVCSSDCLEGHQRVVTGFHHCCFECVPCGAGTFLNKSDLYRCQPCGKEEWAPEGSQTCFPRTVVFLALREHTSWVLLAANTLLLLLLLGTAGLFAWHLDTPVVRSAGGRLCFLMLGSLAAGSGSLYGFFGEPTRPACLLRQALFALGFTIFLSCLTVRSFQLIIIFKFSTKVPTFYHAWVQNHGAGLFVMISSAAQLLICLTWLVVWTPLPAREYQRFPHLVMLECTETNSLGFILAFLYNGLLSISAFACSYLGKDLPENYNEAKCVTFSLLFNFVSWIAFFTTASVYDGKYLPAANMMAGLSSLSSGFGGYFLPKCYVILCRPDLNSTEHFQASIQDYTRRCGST
T1 sequence (Q923K1 21-858 partner): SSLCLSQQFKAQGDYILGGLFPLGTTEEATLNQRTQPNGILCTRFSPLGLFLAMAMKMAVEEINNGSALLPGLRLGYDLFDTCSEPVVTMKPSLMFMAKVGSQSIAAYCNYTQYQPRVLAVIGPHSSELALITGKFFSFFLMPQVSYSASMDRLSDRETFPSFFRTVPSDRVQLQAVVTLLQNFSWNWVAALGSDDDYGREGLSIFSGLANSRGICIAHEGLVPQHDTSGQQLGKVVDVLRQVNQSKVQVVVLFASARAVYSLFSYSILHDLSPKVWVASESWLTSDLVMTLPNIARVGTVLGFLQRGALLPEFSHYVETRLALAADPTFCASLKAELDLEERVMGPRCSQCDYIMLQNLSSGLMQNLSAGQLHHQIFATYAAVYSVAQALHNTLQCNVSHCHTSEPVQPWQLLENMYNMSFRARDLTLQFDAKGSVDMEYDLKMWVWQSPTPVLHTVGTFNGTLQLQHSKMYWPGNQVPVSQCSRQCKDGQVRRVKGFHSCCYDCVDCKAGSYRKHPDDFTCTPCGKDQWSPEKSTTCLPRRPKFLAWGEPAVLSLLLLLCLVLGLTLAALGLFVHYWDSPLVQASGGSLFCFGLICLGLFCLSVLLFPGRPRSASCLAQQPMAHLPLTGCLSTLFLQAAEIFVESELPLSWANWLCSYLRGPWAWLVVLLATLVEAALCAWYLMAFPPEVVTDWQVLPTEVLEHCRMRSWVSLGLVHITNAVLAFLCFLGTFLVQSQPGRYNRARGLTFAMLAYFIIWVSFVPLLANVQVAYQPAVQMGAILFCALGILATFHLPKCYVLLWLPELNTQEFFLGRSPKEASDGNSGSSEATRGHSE
Experiment: Calcium assay, hTAS1R1 mutant co-expressed with rTAS1R3
Format: cell-based, rat
Description: Chimeric Gα proteins, such as Gα16Gust44, Gα16Gi3 or Gα15i2, are widely used in the functional expression of TAS1R receptors ([Backes et al., 2015]; [Suess et al., 2015]; [Toda et al., 2021], [Toda et al., 2013], [Toda et al., 2018]; [Zhang et al., 2008]). Chimeric Gα15i2 (([Toda et al., 2013]), Supplementary data) was generated by replacing the last five residues of the C-terminal tail of rat Gα15i2 (EINLL) (UniProt number G3V6N8; https://www.uniprot.org/uniprot/) with the counterpart sequence from human GNAI2 (DCGLF) (UniProt number P04899-1) and cloning into the pcDNA3.1/Hygro vector (Invitrogen, Thermo Fisher Scientific, Illkirch, France) between the HindIII and NotI restriction sites, resulting in the plasmid pcDNA3.1-Gα15i2. Chimeric Gα16Gust44 construct have already been reported ([Raliou et al., 2011]). Briefly, Gα16Gust44 was generated by replacing the C-terminal of Gα16 with the C-terminal 44 residues of gustducin. As previously described, hTAS1R1 was amplified from human fungiform papillae cDNA and cloned and inserted into pcDNA3 (Invitrogen), generating pcDNA3-TAS1R1-WT (wild-type) ([Raliou et al., 2011]). […] The cDNA coding region of rTAS1R3 was synthesized with optimized-codon usage for human expression (Genewiz) and was cloned and inserted into the mammalian pcDNA4/myc-HisA (Invitrogen) expression vector between the EcoRI and NotI restriction sites, resulting in the plasmid pcDNA4-rTAS1R3. […] The sequence integrity of all the plasmid constructs was verified via automated DNA sequencing (Genewiz).
The hTAS1R1 mutants were co-expressed with the rTAS1R3 subunit in HEK293 cells. […] As a control, the functionality of the mutated receptors was checked after stimulation with S807 (Fig. S8), which interacts with TAS1R1-TMD ([Zhang et al., 2008]).

Row | Compound | EC50 | effect of the added compound (1 mM) on the response to L-Glu (R277A) | response to the agonist alone, vs WT (R277A) | Max ∆F/F0 (R277A, GSH) | R1 = mutant EC50/WT EC50 (R277A, GSH)
1 | N[C@@H](CCC(=O)N[C@@H](CS)C(=O)NCC(=O)O)C(=O)O [GSH, γ-L-glutamyl-L-cysteinyl-glycine] | 1.84 ± 0.174 mM | did not affect | significantly increased the initial amplitude | 0.85 ± 0.02 | 0.7
2 | N[C@@H](CCC(=O)O)C(=O)O [L-Glu, L-glutamic acid, reference compound] | – | – | increased the amplitude | – | –
